Results as given in PMC11845477, “Exploring the principles behind antibiotics with limited resistance” (Nature Communications, 2025).
Where a SMILES comes first, the peptide text is derived from it. Bridges are numbered along the chain shown (N, C = ends). [ ]: non-standard residue; d: D form. The star is where a group is joined. X1 = NC[C@@H](CC(=O)*)c1cccc(Cl)c1; Dab = NCC[C@H](N)C(=O)O; Dap = NC[C@H](N)C(=O)O

Experiments:
[1] = tested on: P. aeruginosa ATCC BAA-3107 (SEN) and P. aeruginosa LESB58 (MDR); assay: Frequency-of-resistance (FoR) assay, relative MIC of mutants; type: cell-based, Pseudomonas aeruginosa
Method: The susceptibility of antibiotics to resistance development was evaluated in two strains of each bacterial species: a multidrug-resistant strain and an antibiotic-sensitive strain of Escherichia coli, Klebsiella pneumoniae, Acinetobacter baumannii, and Pseudomonas aeruginosa. To explore first-step resistance, we previously used a standard protocol for spontaneous frequency-of-resistance analysis (FoR assay) at multiple concentrations of each antibiotic[10],[28],[31]–[33]. […] For all other combinations, approximately 10^10 bacterial cells were exposed to one of each antibiotic on agar plates for two days at concentrations where the given strain is susceptible. We examined resistance levels by contrasting the minimum inhibitory concentration (MICs) of the mutated strains to the original wild-type bacterial strain (i.e., relative MIC).
To estimate the frequency of spontaneous mutations that confer resistance in a microbial population, we conducted a frequency of resistance (FoR) assay following established protocols[10],[31]–[33]. […] Prior to plating, bacteria were grown overnight in MHB medium at 37 °C and 250 RPM, then centrifuged and washed in MHB. All experiments were performed in triplicate, and plates were incubated at 37 °C for 48 hours. Total colony-forming units (CFUs) were determined by plating appropriate dilutions onto antibiotic-free MHB agar. Resistance frequencies were calculated by dividing the number of resistant colonies by the initial viable cell count. From the plates with the highest antibiotic concentration, ten colonies were selected for MIC determination and whole-genome sequencing.
A robotic liquid handling system was used to automatically prepare a 11 to 16-step serial dilution in 384-well microtiter plates (Greiner). A final concentration of 5 × 10^5 bacterial cells per mL were inoculated into each well containing 60 µL MHB medium. Bacterial cultures were incubated at 37 °C with continuous shaking (Infors shaker, 900 rpm with 3 mm throw) for 18 hours (2 replicates from each). Cell growth was monitored by measuring the optical density (OD600 values, using Biotek Synergy microplate reader). MIC was defined as the antibiotic concentration of complete growth inhibition (i.e., OD600 < 0.05). Relative MIC was calculated as follows:1 relativeMIC=MICevolved/MICancestor […]
Supplementary Figure 3. Resistance levels following the frequency of resistance assay across bacterial strains. The level of resistance was measured as the fold change in relative MIC between evolved and ancestral strains. Data are grouped by bacterial strain (A. baumannii (AB), E. coli (EC), K. pneumoniae (KP), and P. aeruginosa (PA)) and categorized as either multidrug-resistant (MDR) or sensitive (SEN). Each data point represents a laboratory evolved line, and boxplots show the median, first and third quartiles, with whiskers indicating the 5th and 95th percentiles. […]
analysis was performed using two-sided Dunn’s post-hoc test with Benjamini-Hochberg correction for multiple comparisons (**/ * indicates p < 0.01/ 0.05). For detailed information on antibiotic and bacterial species, see Supplementary Table 1. For mode of action groups, refer to Table 1. Source data are provided as a Source Data file.

[2] = tested on: E. coli ATCC 25922 (SEN) and E. coli NCTC13846 (MDR); assay: microbe, parasite or virus in culture; type: cell-based, Escherichia coli; conditions: for MIC: across three biological replicates
Method: This study focused on multiple bacterial strains, as follows. For the FoR and ALE experiments, 2 strains per species were chosen: E. coli ATCC 25922, K. pneumoniae ATCC 10031, A. baumannii ATCC 17978, and P. aeruginosa ATCC BAA-3107 as sensitive (SEN) strains, and E. coli NCTC13846, K. pneumoniae ATCC 700603, A. baumannii ATCC BAA-1605 and P. aeruginosa LESB58 as multi-drug resistant (MDR) strains. Functional metagenomic screens were performed with E. coli ATCC 25922 and K. pneumoniae ATCC 10031 strains. To determine the dose-kill properties of the different antibiotics, an E. coli strain (ATCC 25922) expressing a yellow fluorescent protein (pZS2R, YFP, CHL^R) and a red fluorescent protein (pZS2R, mCherry, CHL^R) was used.
Unless otherwise indicated, cation-adjusted Mueller-Hinton Broth 2 (MHB, Millipore) medium was used throughout the study, except for SCH79797 (SCH).
A robotic liquid handling system was used to automatically prepare a 11 to 16-step serial dilution in 384-well microtiter plates (Greiner). A final concentration of 5 × 10^5 bacterial cells per mL were inoculated into each well containing 60 µL MHB medium. Bacterial cultures were incubated at 37 °C with continuous shaking (Infors shaker, 900 rpm with 3 mm throw) for 18 hours (2 replicates from each). Cell growth was monitored by measuring the optical density (OD600 values, using Biotek Synergy microplate reader). MIC was defined as the antibiotic concentration of complete growth inhibition (i.e., OD600 < 0.05). Relative MIC was calculated as follows:1 relativeMIC=MICevolved/MICancestor

[3] = P. aeruginosa ATCC BAA 3107 (PA-SEN), evolved line 1
[4] = P. aeruginosa ATCC BAA 3107 (PA-SEN), evolved line 2
[5] = P. aeruginosa ATCC BAA 3107 (PA-SEN), evolved line 3
[6] = P. aeruginosa LESB 58 (PA-MDR), evolved line 1
[7] = P. aeruginosa LESB 58 (PA-MDR), evolved line 2
[8] = P. aeruginosa LESB 58 (PA-MDR), evolved line 3
[9] = E. coli ATCC 25922 (EC-SEN), ancestor strain, sheet fig 2a
[10] = E. coli NCTC 13846 (EC-MDR), ancestor strain, sheet fig 2a

Compound: CC(C)C[C@@H]1NC(=O)[C@@H](Cc2ccccc2)NC(=O)[C@H](CCN)NC(=O)[C@@H](NC(=O)[C@H](CN)NC(=O)[C@@H](NC(=O)C[C@H](CN)c2cccc(Cl)c2)[C@@H](C)O)CCNC(=O)[C@H]([C@@H](C)O)NC(=O)[C@H](CCN)NC(=O)[C@H](CCN)NC1=O [SPR206] (X1-T[Dap][Dab][Dab][dF]L[Dab][Dab]T; lactam 3-C (inferred); N-terminus assumed)
- Relative MIC ([1]; FoR assay, Pseudomonas aeruginosa ATCC BAA 3107 (PA-SEN), evolved line 1): 1
- Relative MIC ([1]; FoR assay, Pseudomonas aeruginosa ATCC BAA 3107 (PA-SEN), evolved line 2): 1
- Relative MIC ([1]; FoR assay, Pseudomonas aeruginosa ATCC BAA 3107 (PA-SEN), evolved line 3): 1
- MIC of evolved line [1, 3]: 1 µg/mL
- Relative MIC ([1]; P. aeruginosa ATCC BAA 3107 (PA-SEN), evolved line 1, evolved vs ancestor): 1
- MIC of evolved line [1, 4]: 1 µg/mL
- Relative MIC ([1]; P. aeruginosa ATCC BAA 3107 (PA-SEN), evolved line 2, evolved vs ancestor): 1
- MIC of evolved line [1, 5]: 1 µg/mL
- Relative MIC ([1]; P. aeruginosa ATCC BAA 3107 (PA-SEN), evolved line 3, evolved vs ancestor): 1
- MIC of evolved line [1, 6]: 128 µg/mL
- Relative MIC ([1]; P. aeruginosa LESB 58 (PA-MDR), evolved line 1, evolved vs ancestor): 32
- MIC of evolved line [1, 7]: 64 µg/mL
- Relative MIC ([1]; P. aeruginosa LESB 58 (PA-MDR), evolved line 2, evolved vs ancestor): 16
- MIC of evolved line [1, 8]: 64 µg/mL
- Relative MIC ([1]; P. aeruginosa LESB 58 (PA-MDR), evolved line 3, evolved vs ancestor): 16
- MIC of ancestor ([2]; E. coli ATCC 25922 (EC-SEN), ancestor strain): 0.25 µg/mL
- MIC of ancestor [2, 9]: 0.25 µg/mL
- MIC of ancestor ([2]; E. coli NCTC 13846 (EC-MDR), ancestor strain): 4 µg/mL
- MIC of ancestor [2, 10]: 4 µg/mL
- MIC ([2]; Escherichia coli ATCC 25922 (EC-SEN)): 0.25 µg/mL
- MIC ([2]; Escherichia coli NCTC 13846 (EC-MDR)): 4 µg/mL

Compound: polymyxin-B
- MIC of evolved line [1, 3]: 1 µg/mL
- MIC of evolved line [1, 4]: 1 µg/mL
- MIC of evolved line [1, 5]: 1 µg/mL
- MIC of evolved line [1, 6]: 4 µg/mL
- MIC of evolved line [1, 7]: 4 µg/mL
- MIC of evolved line [1, 8]: 4 µg/mL
- MIC of ancestor [2, 9]: 1 µg/mL
- MIC of ancestor [2, 10]: 4 µg/mL
- MIC of ancestor ([2]; Escherichia coli NCTC 13846 (EC-MDR), ancestor): 4 µg/mL
- MIC of ancestor ([2]; ancestor EC-SEN (Escherichia coli ATCC 25922)): 1 µg/mL
